Measured values reported in patent US20080274882A1, “Insecticides Based on Selected Neonicotinoids and Strobilurins” (Bayer CropScience AG, priority 2004, published 2008).

Assays:
[1] = system: Phaedon cochleariae larvae; assay: Phaedon cochleariae larvae test (cabbage leaf dip)
[2] = system: Myzus persicae; assay: Myzus persicae test (cabbage leaf dip); type: in vivo; settings: for Kill in % after 1 day: Table A1; for Kill in % after 6 days: Table A2

For `CNC(=O)/C(=N/OC)c1ccccc1COc1cc(C)ccc1C` [dimoxystrobin], the “Kill in % after 6^d” value ([1]; 20 ppm, Table B2) was 0%.
For `CN/C(=N\[N+](=O)[O-])NCc1cnc(Cl)s1` [clothianidin], the “Kill in % after 1 day” value ([2]; 0.8 ppm) was 40%, the “Kill in % after 6 days” value ([2]; 0.8 ppm) was 30% and the “Kill in % after 6^d” value ([1]; 4 ppm, Table B1) was 20%. The “Kill in % after 6^d” value ([1]; 4 ppm, Table B2) was 60%.
For `CO/C=C(/C(=O)OC)c1ccccc1COc1cccc(C(F)(F)F)n1` [picoxystrobin], the “Kill in % after 1 day” value ([2]; 100 ppm) was 0% and the “Kill in % after 6^d” value ([1]; 100 ppm, Table B1) was 0%.
With pyraclostrobin the “Kill in % after 6 days” value ([2]; 100 ppm) was 35%.
